Measurements: PubChem BioAssay AID248 (DTP/NCI, 2004)
“And” between values parts separate entries of the source, which are not always exact repeats. Equal values may be shown once. Inconclusive results and toxic doses are left out. No stated cut-off is given here; in the data, active means T/C of 150% or more; inactive means T/C below 125%.

Test system: L1210 leukemia ip in BDF1 mice, survival T/C
Assay: NCI In Vivo Anticancer Drug Screen. Data for tumor model L1210 Leukemia (intraperitoneal) in B6D2F1 (BDF1) mice
Conditions: endpoint: mean survival time, higher = longer survival
In short: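 Transplantable tumor model; survival measured in treated vs vehicle control mice. Value = treated/control.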

[1] = dose: 50.0 mg/kg/injection, schedule: Q04DX002 (ip), vehicle: Klucel (hydroxypropylcellulose) (HPC)
[2] = dose: 100.0 mg/kg/injection, schedule: Q01DX009 (ip), vehicle: Klucel (hydroxypropylcellulose) (HPC)
[3] = dose: 100.0 mg/kg/injection, schedule: Q04DX002 (ip), vehicle: Klucel (hydroxypropylcellulose) (HPC)
[4] = dose: 200.0 mg/kg/injection, schedule: Q01DX009 (ip), vehicle: Klucel (hydroxypropylcellulose) (HPC)
[5] = dose: 200.0 mg/kg/injection, schedule: Q04DX002 (ip), vehicle: Klucel (hydroxypropylcellulose) (HPC)
[6] = dose: 400.0 mg/kg/injection, schedule: Q01DX009 (ip), vehicle: Klucel (hydroxypropylcellulose) (HPC)
[7] = dose: 100.0 mg/kg/injection, schedule: Q04DX003 (ip), vehicle: saline with Tween-80
[8] = dose: 200.0 mg/kg/injection, schedule: Q04DX003 (ip), vehicle: saline with Tween-80
[9] = dose: 400.0 mg/kg/injection, schedule: Q04DX003 (ip), vehicle: saline with Tween-80
[10] = dose: 400.0 mg/kg/injection, schedule: Q04DX002 (ip), vehicle: Klucel (hydroxypropylcellulose) (HPC)
[11] = dose: 50.0 mg/kg/injection, schedule: Q01DX009 (ip), vehicle: saline
[12] = dose: 100.0 mg/kg/injection, schedule: Q04DX003 (ip), vehicle: saline
[13] = dose: 200.0 mg/kg/injection, schedule: Q04DX003 (ip), vehicle: saline
[14] = dose: 100.0 mg/kg/injection, schedule: Q01DX001 (ip), vehicle: saline
[15] = dose: 200.0 mg/kg/injection, schedule: Q01DX001 (ip), vehicle: saline
[16] = dose: 400.0 mg/kg/injection, schedule: Q01DX001 (ip), vehicle: saline
[17] = dose: 100.0 mg/kg/injection, schedule: Q04DX003 (ip), vehicle: Klucel (hydroxypropylcellulose) (HPC)
[18] = dose: 200.0 mg/kg/injection, schedule: Q04DX003 (ip), vehicle: Klucel (hydroxypropylcellulose) (HPC)
[19] = dose: 400.0 mg/kg/injection, schedule: Q04DX003 (ip), vehicle: Klucel (hydroxypropylcellulose) (HPC)

Measured: T/C

CC(=O)N(CCN(Cc1ccc(Oc2ccc([N+](=O)[O-])cc2[N+](=O)[O-])cc1)C(C)=O)CCN(Cc1ccc(Oc2ccc([N+](=O)[O-])cc2[N+](=O)[O-])cc1)C(C)=O
inactive: dose: 25.0 mg/kg/injection, schedule: Q01DX009 (ip), vehicle: other 102 % of control | dose: 50.0 mg/kg/injection, schedule: Q01DX009 (ip), vehicle: other 97 % of control | dose: 100.0 mg/kg/injection, schedule: Q01DX009 (ip), vehicle: other 96 % of control | dose: 200.0 mg/kg/injection, schedule: Q01DX009 (ip), vehicle: other 96 % of control | dose: 400.0 mg/kg/injection, schedule: Q01DX009 (ip), vehicle: other 93 % of control

CN(C)N=Nc1cc2c(cc1O)CC[C@@H]1[C@@H]2CC[C@]2(C)C(=O)CC[C@@H]12
inactive: dose: 25.0 mg/kg/injection, schedule: Q01DX009 (ip), vehicle: Klucel (hydroxypropylcellulose) (HPC) 97 % of control | dose: 50.0 mg/kg/injection, schedule: Q01DX009 (ip), vehicle: Klucel (hydroxypropylcellulose) (HPC) 90 % of control | [1] 90 % of control | [2] 110 % of control | [3] 90 % of control | [4] 103 % of control | [5] 87 % of control | [6] 96 % of control

CNS(=O)(=O)c1ccccc1C=C(c1ccccc1)c1ccccc1
inactive: dose: 100.0 mg/kg/injection, schedule: Q01DX001 (ip), vehicle: steriod suspending solution 92 % of control | dose: 200.0 mg/kg/injection, schedule: Q01DX001 (ip), vehicle: steriod suspending solution 114 % of control | dose: 400.0 mg/kg/injection, schedule: Q01DX001 (ip), vehicle: steriod suspending solution 102 % of control

COc1ccc(COc2ccc(OC)cc2)cc1
inactive: [7] 95 % of control | [8] 96 % of control | [9] 98 % of control

COC(=O)CNC(=O)CCNC(=O)OCc1ccccc1
inactive: [7] 98 % of control | [8] 97 % of control | [9] 98 % of control

CCCCCCCCCCCCCCCC(=O)Nc1ccc(C)cc1C
inactive: [3] 96 % of control | [5] 93 % of control | [10] 90 % of control

CCCOC(CN)C(Cl)(Cl)Cl (stereo not drawn)
inactive: [11] 98 % of control | dose: 100.0 mg/kg/injection, schedule: Q01DX009 (ip), vehicle: saline 96 % of control | [12] 97 % of control | dose: 200.0 mg/kg/injection, schedule: Q01DX009 (ip), vehicle: saline 96 % of control | [13] 92 % of control

CC1=CC(=C2C=C(C)C(=O)C(C)=C2)C=C(C)C1=O
inactive: dose: 100.0 mg/kg/injection, schedule: Q01DX001 (ip), vehicle: saline with Tween-80 87 % of control | [7] 94 % of control and 102 % of control | [8] 94 % of control and 96 % of control | dose: 400.0 mg/kg/injection, schedule: Q01DX001 (ip), vehicle: saline with Tween-80 87 % of control | [9] 94 % of control and 89 % of control

CCOC(=O)C(=CNc1ccc(OCCCOc2ccccc2)cc1)C(=O)OCC
inactive: dose: 100.0 mg/kg/injection, schedule: Q01DX001 (ip), vehicle: gum acacia 98 % of control | dose: 200.0 mg/kg/injection, schedule: Q01DX001 (ip), vehicle: gum acacia 90 % of control | dose: 400.0 mg/kg/injection, schedule: Q01DX001 (ip), vehicle: gum acacia 102 % of control

CC(C)(C)NCc1cc(C(C)(C)C)cc(-c2ccccc2)c1O
inactive: [14] 100 % of control | [12] 97 % of control | [15] 101 % of control | [13] 90 % of control | [16] 99 % of control

C[N+](C)(C)C1CC1
inactive: dose: 12.5 mg/kg/injection, schedule: Q01DX009 (ip), vehicle: saline 94 % of control | dose: 25.0 mg/kg/injection, schedule: Q01DX009 (ip), vehicle: saline 98 % of control | dose: 25.0 mg/kg/injection, schedule: Q04DX003 (ip), vehicle: saline 93 % of control | [11] 96 % of control and 102 % of control | dose: 50.0 mg/kg/injection, schedule: Q04DX003 (ip), vehicle: saline 103 % of control

O=C(Cn1ccc(=O)[nH]c1=O)c1cccs1
inactive: dose: 100.0 mg/kg/injection, schedule: Q01DX009 (ip), vehicle: saline with Tween-80 104 % of control | [7] 98 % of control | dose: 200.0 mg/kg/injection, schedule: Q01DX009 (ip), vehicle: saline with Tween-80 96 % of control | [8] 96 % of control | dose: 400.0 mg/kg/injection, schedule: Q01DX009 (ip), vehicle: saline with Tween-80 96 % of control | [9] 95 % of control

ClCCOCc1ccccc1
inactive: [17] 102 % of control | [18] 100 % of control | [19] 98 % of control

O=S(O)c1cc(Br)ccc1Br
inactive: [2] 97 % of control | [17] 93 % of control | [4] 113 % of control | [18] 104 % of control | [19] 94 % of control

Cc1nc(Cl)cc(=O)[nH]1
inactive: [2] 90 % of control | [17] 101 % of control | [4] 97 % of control | [18] 90 % of control | [6] 90 % of control | [19] 91 % of control

O=C(OCC1OC(Cl)C(OC(=O)c2ccccc2)C1OC(=O)c1ccccc1)c1ccccc1 (stereo not drawn)
inactive: dose: 100.0 mg/kg/injection, schedule: Q01DX001 (sc), vehicle: olive oil, sesame oil, peanut oil 100 % of control | dose: 200.0 mg/kg/injection, schedule: Q01DX001 (sc), vehicle: olive oil, sesame oil, peanut oil 100 % of control | dose: 400.0 mg/kg/injection, schedule: Q01DX001 (sc), vehicle: olive oil, sesame oil, peanut oil 96 % of control

Oc1ccc2c(c1)CNCC2
inactive: [14] 96 % of control | [15] 98 % of control | [16] 102 % of control

COC(=O)c1ccccc1N=NNc1ccc(C)c(Cl)c1
inactive: dose: 100.0 mg/kg/injection, schedule: Q04DX002 (ip), vehicle: saline with Tween-80 94 % of control | dose: 200.0 mg/kg/injection, schedule: Q04DX002 (ip), vehicle: saline with Tween-80 94 % of control | dose: 400.0 mg/kg/injection, schedule: Q04DX002 (ip), vehicle: saline with Tween-80 87 % of control

CCCCCCCCSC(C)(C)C
inactive: [12] 102 % of control | [13] 101 % of control | dose: 400.0 mg/kg/injection, schedule: Q04DX003 (ip), vehicle: saline 93 % of control

CN(C)S(=O)(=O)c1ccc(NC(=O)OC2CCCC2)cc1
inactive: dose: 100.0 mg/kg/injection, schedule: Q01DX001 (ip), vehicle: carboxymethylcellulose (CMC) 93 % of control | dose: 200.0 mg/kg/injection, schedule: Q01DX001 (ip), vehicle: carboxymethylcellulose (CMC) 98 % of control | dose: 400.0 mg/kg/injection, schedule: Q01DX001 (ip), vehicle: carboxymethylcellulose (CMC) 98 % of control

Cc1cc(=O)oc2c(OC(=O)N(CCCl)CCCl)c(OC(=O)N(CCCl)CCCl)ccc12
inactive: dose: 25.0 mg/kg/injection, schedule: Q04DX002 (ip), vehicle: Klucel (hydroxypropylcellulose) (HPC) 90 % of control | [1] 94 % of control | [3] 97 % of control | [5] 90 % of control | [10] 103 % of control
